Experiments:
[1] = system: barnyardgrass; assay: Test A pre-/postemergence herbicide test; assay type: in vivo, Echinochloa crus-galli; conditions: for Barnyardgrass plant response rating: Preemergence, visual rating on 0 to 100 scale (0 no effect, 100 complete control)
Summary of the method: (§1)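 Visual injury ratings, 0 = no effect, 100 = complete control, taken ~10 days after treatment against untreated greenhouse controls. Preemergence: directed soil spray onto seeded loam/sand pots. Postemergence: spray onto plants at one- to two-leaf stage, 2–10 cm tall.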

[2] = system: crabgrass, large; assay: Test A pre-/postemergence herbicide test; assay type: in vivo, Digitaria sanguinalis; conditions: for Crabgrass, Large plant response rating: Preemergence, visual rating on 0 to 100 scale (0 no effect, 100 complete control)
Summary of the method: as §1

[3] = system: giant foxtail; assay: Test A pre-/postemergence herbicide test; assay type: in vivo, Setaria faberii; conditions: for Foxtail, Giant plant response rating: Preemergence, visual rating on 0 to 100 scale (0 no effect, 100 complete control)
Summary of the method: as §1

[4] = system: morningglory; assay: Test A pre-/postemergence herbicide test; assay type: in vivo, Ipomoea spp.; conditions: for Morningglory plant response rating: Preemergence, visual rating on 0 to 100 scale (0 no effect, 100 complete control)
Summary of the method: as §1

[5] = system: pigweed; assay: Test A pre-/postemergence herbicide test; assay type: in vivo, Amaranthus retroflexus; conditions: for Pigweed plant response rating: Preemergence, visual rating on 0 to 100 scale (0 no effect, 100 complete control)
Summary of the method: as §1

[6] = system: velvetleaf; assay: Test A pre-/postemergence herbicide test; assay type: in vivo, Abutilon theophrasti; conditions: for Velvetleaf plant response rating: Preemergence, visual rating on 0 to 100 scale (0 no effect, 100 complete control)
Summary of the method: as §1

[7] = system: wheat; assay: Test A pre-/postemergence herbicide test; assay type: in vivo, Triticum aestivum; conditions: for Wheat plant response rating: Preemergence, visual rating on 0 to 100 scale (0 no effect, 100 complete control)
Summary of the method: as §1

[8] = system: corn; assay: Test A pre-/postemergence herbicide test; assay type: in vivo, Zea mays; conditions: for Corn plant response rating: Preemergence, visual rating on 0 to 100 scale (0 no effect, 100 complete control)
Summary of the method: as §1

[9] = system: rice; assay: Test C flooded paddy test; assay type: in vivo, Oryza sativa; conditions: Flood
Description: (§2) Plant species in the flooded paddy test consisted of rice (Oryza sativa), sedge, umbrella (small-flower umbrella sedge, Cyperus difformis), ducksalad (Heteranthera limosa), and barnyardgrass (Echinochloa crus-galli) grown to the 2-leaf stage for testing. At time of treatment, test pots were flooded to 3 cm above the soil surface, treated by application of test compounds directly to the paddy water, and then maintained at that water depth for the duration of the test. Treated plants and controls were maintained in a greenhouse for 13 to 15 days, after which time all species were compared to controls and visually evaluated. Plant response ratings, summarized in Table C, are based on a scale of 0 to 100 where 0 is no effect and 100 is complete control. A dash (-) response means no test result.

[10] = system: sedge, umbrella; assay: Test C flooded paddy test; assay type: in vivo, Cyperus difformis; conditions: Flood
Description: as §2

[11] = system: ducksalad; assay: Test C flooded paddy test; assay type: in vivo, Heteranthera limosa; conditions: Flood
Description: as §2

[12] = system: barnyardgrass; assay: Test C flooded paddy test; assay type: in vivo, Echinochloa crus-galli; conditions: Flood
Description: as §2

[13] = Postemergence, 125 g ai/ha, 0 to 100 scale, 0 no effect, 100 complete control
[14] = Postemergence, 500 g ai/ha, 0 to 100 scale (0 no effect, 100 complete control)
[15] = preemergence, 500 g ai/ha, 0 to 100 scale (0 no effect, 100 complete control)
[16] = preemergence, 500 g ai/ha, 0 to 100 scale
[17] = 31 g ai/ha, scale of 0 to 100 where 0 is no effect and 100 is complete control, 13 to 15 days
[18] = 62 g ai/ha, scale of 0 to 100 where 0 is no effect and 100 is complete control, 13 to 15 days
[19] = 125 g ai/ha, scale of 0 to 100 where 0 is no effect and 100 is complete control, 13 to 15 days

## CC1NC(=O)C(C(=O)Nc2ccccc2F)C1c1ccc(F)c(F)c1 (mixture of isomers) [Compound 7]
[1]; [13]
  Plant response rating, Barnyardgrass: 20
[1]; [14]
  Plant response rating, Barnyardgrass: 70
[1]; 125 g ai/ha
  Barnyardgrass plant response rating: 20
[1]; [15]
  Plant response rating, Barnyardgrass: 80
[2]; [13]
  Plant response rating, Crabgrass, Large: 30
[2]; [14]
  Plant response rating, Crabgrass, Large: 80
[2]; 125 g ai/ha
  Crabgrass, Large plant response rating: 80
[2]; [16]
  Plant response rating, Crabgrass, Large: 90
[3]; [13]
  Plant response rating, Foxtail, Giant: 0
[3]; [14]
  Plant response rating, Foxtail, Giant: 50
[3]; 125 g ai/ha
  Foxtail, Giant plant response rating: 70
[3]; [16]
  Plant response rating, Foxtail, Giant: 90
[4]; [13]
  Plant response rating, Morningglory: 0
[4]; [14]
  Plant response rating, Morningglory: 0
[4]; 125 g ai/ha
  Morningglory plant response rating: 0
[4]; [16]
  Plant response rating, Morningglory: 0
[5]; [13]
  Plant response rating, Pigweed: 0
[5]; [14]
  Plant response rating, Pigweed: 0
[5]; 125 g ai/ha
  Pigweed plant response rating: 0
[5]; [16]
  Plant response rating, Pigweed: 0
[6]; [13]
  Plant response rating, Velvetleaf: 0
[6]; [14]
  Plant response rating, Velvetleaf: 0
[6]; 125 g ai/ha
  Velvetleaf plant response rating: 0
[6]; [16]
  Plant response rating, Velvetleaf: 0
[7]; [13]
  Plant response rating, Wheat: 0
[7]; [14]
  Plant response rating, Wheat: 0
[7]; 125 g ai/ha
  Wheat plant response rating: 0
[7]; [16]
  Plant response rating, Wheat: 0
[8]; [13]
  Plant response rating, Corn: 0
[8]; [14]
  Plant response rating, Corn: 0
[8]; 125 g ai/ha
  Corn plant response rating: 0
[8]; [16]
  Plant response rating, Corn: 0
[9]; [17]
  Plant response rating, Rice: 0
[9]; [18]
  Plant response rating, Rice: 0
[9]; [19]
  Plant response rating, Rice: 0
[9]; 250 g ai/ha, scale 0 to 100
  Plant response rating, Rice: 0
[10]; [17]
  Plant response rating, Sedge, Umbrella: 0
[10]; [18]
  Plant response rating, Sedge, Umbrella: 0
[10]; [19]
  Plant response rating, Sedge, Umbrella: 0
[10]; 250 g ai/ha, scale 0 to 100
  Plant response rating, Sedge, Umbrella: 0
[11]; [17]
  Plant response rating, Ducksalad: 0
[11]; [18]
  Plant response rating, Ducksalad: 0
[11]; [19]
  Plant response rating, Ducksalad: 0
[11]; 250 g ai/ha, scale 0 to 100
  Plant response rating, Ducksalad: 0
[12]; [17]
  Plant response rating, Barnyardgrass: 0
[12]; [18]
  Plant response rating, Barnyardgrass: 0
[12]; [19]
  Plant response rating, Barnyardgrass: 0
[12]; 250 g ai/ha, scale 0 to 100
  Plant response rating, Barnyardgrass: 0

## CC1NC(=O)C(C(=O)Nc2ccccc2F)C1c1ccc(F)c(F)c1 (mixture of isomers) [Compound 8]
[1]; [13]
  Plant response rating, Barnyardgrass: 20
[1]; [14]
  Plant response rating, Barnyardgrass: 60
[1]; 125 g ai/ha
  Barnyardgrass plant response rating: 20
[1]; [15]
  Plant response rating, Barnyardgrass: 60
[2]; [13]
  Plant response rating, Crabgrass, Large: 60
[2]; [14]
  Plant response rating, Crabgrass, Large: 70
[2]; 125 g ai/ha
  Crabgrass, Large plant response rating: 80
[2]; [16]
  Plant response rating, Crabgrass, Large: 90
[3]; [13]
  Plant response rating, Foxtail, Giant: 0
[3]; [14]
  Plant response rating, Foxtail, Giant: 50
[3]; 125 g ai/ha
  Foxtail, Giant plant response rating: 60
[3]; [16]
  Plant response rating, Foxtail, Giant: 90
[4]; [13]
  Plant response rating, Morningglory: 0
[4]; [14]
  Plant response rating, Morningglory: 0
[4]; 125 g ai/ha
  Morningglory plant response rating: 0
[4]; [16]
  Plant response rating, Morningglory: 0
[5]; [13]
  Plant response rating, Pigweed: 0
[5]; [14]
  Plant response rating, Pigweed: 0
[5]; 125 g ai/ha
  Pigweed plant response rating: 0
[5]; [16]
  Plant response rating, Pigweed: 0
[6]; [13]
  Plant response rating, Velvetleaf: 0
[6]; [14]
  Plant response rating, Velvetleaf: 0
[6]; 125 g ai/ha
  Velvetleaf plant response rating: 0
[6]; [16]
  Plant response rating, Velvetleaf: 0
[7]; [13]
  Plant response rating, Wheat: 0
[7]; [14]
  Plant response rating, Wheat: 0
[7]; 125 g ai/ha
  Wheat plant response rating: 0
[7]; [16]
  Plant response rating, Wheat: 0
[8]; [13]
  Plant response rating, Corn: 0
[8]; [14]
  Plant response rating, Corn: 0
[8]; 125 g ai/ha
  Corn plant response rating: 0
[8]; [16]
  Plant response rating, Corn: 20
[9]; [17]
  Plant response rating, Rice: 0
[9]; [18]
  Plant response rating, Rice: 0
[9]; [19]
  Plant response rating, Rice: 0
[9]; 250 g ai/ha, scale 0 to 100
  Plant response rating, Rice: 0
[10]; [17]
  Plant response rating, Sedge, Umbrella: 0
[10]; [18]
  Plant response rating, Sedge, Umbrella: 0
[10]; [19]
  Plant response rating, Sedge, Umbrella: 0
[10]; 250 g ai/ha, scale 0 to 100
  Plant response rating, Sedge, Umbrella: 0
[11]; [17]
  Plant response rating, Ducksalad: 0
[11]; [18]
  Plant response rating, Ducksalad: 0
[11]; [19]
  Plant response rating, Ducksalad: 0
[11]; 250 g ai/ha, scale 0 to 100
  Plant response rating, Ducksalad: 0
[12]; [17]
  Plant response rating, Barnyardgrass: 0
[12]; [18]
  Plant response rating, Barnyardgrass: 0
[12]; [19]
  Plant response rating, Barnyardgrass: 0
[12]; 250 g ai/ha, scale 0 to 100
  Plant response rating, Barnyardgrass: 0

Source: patent US10294202B2, “Pyrrolidinones as herbicides” (FMC Corporation, priority 2013, dated 2019)
